Patent US10821100B2, “Triazolone compounds as mPGES-1 inhibitors” (Glenmark Pharmaceuticals S.A., priority 2012, dated 2020)

Biological target: T1, Recombinant human mPGES-1 (Homo sapiens, UniProt O14684)
T1 construct: made in house; host or cells: CHO cells (crude microsomal fractions)
T1 sequence (O14684 1-152): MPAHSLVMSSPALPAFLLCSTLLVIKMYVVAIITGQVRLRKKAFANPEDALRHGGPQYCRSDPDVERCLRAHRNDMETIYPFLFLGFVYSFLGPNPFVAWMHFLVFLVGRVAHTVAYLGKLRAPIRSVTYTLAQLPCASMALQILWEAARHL
Assay: In-vitro screening of mPGES-1 inhibitors (inhibition of PGE2 formation from PGH2, HTRF detection)
Type: biochemical
Details: mPGES-1 enzyme; for inhibition at 1 µM: 1 μM test compound, read-out: Percentage inhibition at 1 μM; for inhibition at 1 µM / inhibition at 10 µM: crude microsomal fractions; for inhibition at 10 µM: 10 μM test compound, read-out: Percentage inhibition at 10 μM; for IC50: class symbols
Summary of the method: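 PGH2-to-PGE2 isomerization run for 1 min with 15 μM PGH2 after 10 min compound preincubation with microsomal enzyme (40–60 μg/mL) and 2.5 mM GSH, pH buffer 0.1 M potassium phosphate with EDTA. Stannous chloride quench, HTRF PGE2 readout, IC50 fitted against uninhibited reaction.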

SMILES | inhibition at 1 µM [%] | inhibition at 10 µM [%] | IC50 [nM]
CC(C)(C)C(=O)NCc1ccc(Cl)c(-n2nc(-c3ccc(CN4CCCC4)cc3)[nH]c2=O)c1 [Example-151, N-(4-Chloro-3-(4,5-dihydro-5-oxo-3-(4-((pyrrolidin-1-yl)methyl)phenyl)-1,2,4-triazol-1-yl)benzyl)pivalamide] | 65 | 95.9 | –
CC(C)c1nnc(-c2ccc(-c3nn(-c4cc(CNC(=O)C(C)(C)C)ccc4Cl)c(=O)[nH]3)cc2)o1 [Example-153, N-(4-Chloro-3-(4,5-dihydro-3-(4-(5-isopropyl-1,3,4-oxadiazol-2-yl)phenyl)-5-oxo-1,2,4-triazol-1-yl)benzyl)pivalamide] | 93.9 | 99.7 | 50 to 100
Cc1cc(C(F)(F)F)ccc1-n1nc(-c2cc(CNC(=O)C(C)(C)C)ccc2Cl)[nH]c1=O [Example-159, N-(4-Chloro-3-(1-(4-(trifluoromethyl)-2-methylphenyl)-4,5-dihydro-5-oxo-1H-1,2,4-triazol-3-yl)benzyl)pivalamide] | 75.4 | 96.8 | > 100
CC(C)C(=O)NCc1ccc(Cl)c(-c2nn(-c3ccc(C(F)(F)F)c(F)c3)c(=O)[nH]2)c1 [Example-161, N-(4-Chloro-3-(1-(3-fluoro-4-(trifluoromethyl)phenyl)-4,5-dihydro-5-oxo-1H-1,2,4-triazol-3-yl)benzyl)isobutyramide] | 98 | 99.4 | < 50
CC(C)S(=O)(=O)NCc1ccc(Cl)c(-c2nn(-c3ccc(C(F)(F)F)cc3)c(=O)[nH]2)c1 [Example-162, N-(4-Chloro-3-{5-oxo-1-[4-(trifluoromethyl)phenyl]-4,5-dihydro-1H-1,2,4-triazol-3-yl}benzyl)propane-2-sulfonamide] | 99.3 | 99.3 | < 50
CC(C)(C)C(=O)NCc1ccc(Cl)c(-c2nn(-c3ccc(C(F)(F)F)cc3F)c(=O)[nH]2)c1 [Example-163, N-(4-Chloro-3-(1-(2-fluoro-4-(trifluoromethyl)phenyl)-4,5-dihydro-5-oxo-1H-1,2,4-triazol-3-yl)benzyl)pivalamide] | 91.8 | 98.7 | < 50
Cc1ccc(CNC(=O)C(C)C)c(C)c1-c1nn(-c2ccc(C#CC(C)(C)C)cc2)c(=O)[nH]1 [Example-164, N-(3-(4,5-Dihydro-1-(4-(3,3-dimethylbut-1-ynyl)phenyl)-5-oxo-1H-1,2,4-triazol-3-yl)-2,4-dimethylbenzyl)isobutyramide] | 98.3 | 97.2 | < 50
Cc1ccc(CNC(=O)C(C)(C)C)c(C)c1-c1nn(-c2ccc(C#CC3CC3)cc2)c(=O)[nH]1 [Example-165, N-(3-(1-(4-(2-Cyclopropylethynyl)phenyl)-4,5-dihydro-5-oxo-1H-1,2,4-triazol-3-yl)-2,4-dimethylbenzyl)pivalamide] | 97.9 | 99.5 | < 50
CC(C)(C)C(=O)NCc1ccc(Cl)c(-n2nc(-c3ccc(C#CC4CC4)c(F)c3)[nH]c2=O)c1 [Example-166, N-(4-Chloro-3-(3-(4-(2-cyclopropylethynyl)-3-fluorophenyl)-4,5-dihydro-5-oxo-1,2,4-triazol-1-yl)benzyl)pivalamide] | 99.7 | 100 | < 50
CC(C)(C)C(=O)NCc1ccc(Cl)c(-c2nn(-c3ccc(C#CC4CC4)cc3)c(=O)[nH]2)c1 [Example-167, N-(4-Chloro-3-(1-(4-(2-cyclopropylethynyl)phenyl)-4,5-dihydro-5-oxo-1H-1,2,4-triazol-3-yl)benzyl)pivalamide] | 99 | 98.4 | < 50
CC(C)(C)C(=O)NCc1ccc(Cl)c(-n2nc(-c3ccc(C#CC4CC4)cc3F)[nH]c2=O)c1 [Example-168, N-(4-Chloro-3-(3-(4-(2-cyclopropylethynyl)-2-fluorophenyl)-4,5-dihydro-5-oxo-1,2,4-triazol-1-yl)benzyl)pivalamide] | 100 | 98.9 | < 50
Cc1ccc(CNC(=O)C(C)(C)CF)c(C)c1-c1nn(-c2ccc(C#CC3CC3)cc2)c(=O)[nH]1 [Example-169, N-(3-(1-(4-(2-Cyclopropylethynyl)phenyl)-4,5-dihydro-5-oxo-1H-1,2,4-triazol-3-yl)-2,4-dimethylbenzyl)-3-fluoro-2,2-dimethylpropanamide] | 95.5 | 99.2 | > 100

The next lines start with the values.

inhibition at 1 µM [%] | inhibition at 10 µM [%] | IC50 [nM] | SMILES
94.2 | 98.9 | < 50 | CC(C)(C)C(=O)NCc1ccc(Cl)c(-n2nc(-c3ccc(C(F)(F)F)cc3)[nH]c2=O)c1 [Example-145, N-(4-Chloro-3-(3-(4-(trifluoromethyl)phenyl)-4,5-dihydro-5-oxo-1,2,4-triazol-1-yl)benzyl)pivalamide]
100 | 99.7 | < 50 | CC(C)(C)C(=O)NCc1ccc(Cl)c(-n2nc(-c3ccc(C(F)(F)F)c(F)c3)[nH]c2=O)c1 [Example-146, N-(4-Chloro-3-(3-(3-fluoro-4-(trifluoromethyl)phenyl)-4,5-dihydro-5-oxo-1,2,4-triazol-1-yl)benzyl)pivalamide]
98.6 | 97.6 | < 50 | CC(C)(C)C(=O)NCc1ccc(Cl)c(-n2nc(-c3ccc(Cl)c(C(F)(F)F)c3)[nH]c2=O)c1 [Example-147, N-(4-Chloro-3-(3-(4-chloro-3-(trifluoromethyl)phenyl)-4,5-dihydro-5-oxo-1,2,4-triazol-1-yl)benzyl)pivalamide]
98.9 | 97.8 | < 50 | CC(C)(C)C(=O)NCc1ccc(Cl)c(-n2nc(-c3ccc(F)c(C(F)(F)F)c3)[nH]c2=O)c1 [Example-148, N-(4-Chloro-3-(3-(4-fluoro-3-(trifluoromethyl)phenyl)-4,5-dihydro-5-oxo-1,2,4-triazol-1-yl)benzyl)pivalamide]
98.3 | 94.6 | < 50 | CC(C)C(=O)NCc1ccc(Cl)c(-n2nc(-c3ccc(C#CC(C)(C)C)c(F)c3)[nH]c2=O)c1 [Example-149, N-(4-Chloro-3-(3-(3-fluoro-4-(3,3-dimethylbut-1-ynyl)phenyl)-4,5-dihydro-5-oxo-1,2,4-triazol-1-yl)benzyl)isobutyramide]
98.4 | 99.5 | < 50 | CC(C)C(=O)NCc1ccc(Cl)c(-n2nc(-c3ccc(C#CC4CC4)c(F)c3)[nH]c2=O)c1 [Example-150, N-(4-Chloro-3-(3-(4-(2-cyclopropylethynyl)-3-fluorophenyl)-4,5-dihydro-5-oxo-1,2,4-triazol-1-yl)benzyl)isobutyramide]
96 | 100 | < 50 | CC(C)(C)C(=O)NCc1ccc(Cl)c(-n2nc(-c3ccc(COCC(F)(F)F)cc3)[nH]c2=O)c1 [Example-152, N-(3-(3-(4-((2,2,2-Trifluoroethoxy)methyl)phenyl)-4,5-dihydro-5-oxo-1,2,4-triazol-1-yl)-4-chlorobenzyl)pivalamide]
95.2 | 100 | < 50 | Cc1cc(-n2nc(-c3cc(CNC(=O)C(C)(C)C)ccc3Cl)[nH]c2=O)ccc1Cl [Example-154, N-(4-Chloro-3-(1-(4-chloro-3-methylphenyl)-4,5-dihydro-5-oxo-1H-1,2,4-triazol-3-yl)benzyl)pivalamide]
99.7 | 97.1 | < 50 | Cc1cc(-n2nc(-c3cc(CNC(=O)C(C)C)ccc3Cl)[nH]c2=O)ccc1Cl [Example-155, N-(4-Chloro-3-(1-(4-chloro-3-methylphenyl)-4,5-dihydro-5-oxo-1H-1,2,4-triazol-3-yl)benzyl)isobutyramide]
98.5 | 99.2 | < 50 | CC(C)(C)C(=O)NCc1ccc(Cl)c(-c2nn(-c3cc(F)cc(C(F)(F)F)c3)c(=O)[nH]2)c1 [Example-156, N-(4-Chloro-3-(1-(3-fluoro-5-(trifluoromethyl)phenyl)-4,5-dihydro-5-oxo-1H-1,2,4-triazol-3-yl)benzyl)pivalamide]
98.5 | 96.5 | < 50 | CC(C)(C)C(=O)NCc1ccc(Cl)c(-c2nn(-c3ccc(Cl)c(C(F)(F)F)c3)c(=O)[nH]2)c1 [Example-157, N-(4-Chloro-3-(1-(4-chloro-3-(trifluoromethyl)phenyl)-4,5-dihydro-5-oxo-1H-1,2,4-triazol-3-yl)benzyl)pivalamide]
99 | 99.7 | < 50 | Cc1ccc(-n2nc(-c3cc(CNC(=O)C(C)(C)C)ccc3Cl)[nH]c2=O)cc1C(F)(F)F [Example-158, N-(4-Chloro-3-(1-(3-(trifluoromethyl)-4-methylphenyl)-4,5-dihydro-5-oxo-1H-1,2,4-triazol-3-yl)benzyl)pivalamide]
96.6 | 97.3 | < 50 | CC(C)(C)C(=O)NCc1ccc(Cl)c(-c2nn(-c3ccc(C(F)(F)F)c(F)c3)c(=O)[nH]2)c1 [Example-160, N-(4-Chloro-3-(1-(3-fluoro-4-(trifluoromethyl)phenyl)-4,5-dihydro-5-oxo-1H-1,2,4-triazol-3-yl)benzyl)pivalamide]
